Test results reported in article PMC4352855 (Scientific Reports, 2015).
Entries after “also recorded” stand apart in the source; their conditions may differ.

Assays:
L. monocytogenes = conditions: cited from earlier work
LLO = target: T1, LLO (Listeria monocytogenes serovar 1/2a, UniProt P13128); conditions: cited from earlier work
T1 construct: His6 (C); made in house; host or cells: Escherichia coli BL21(DE3)

S467A-LLO = target: T2, S467A-LLO (Listeria monocytogenes serovar 1/2a, UniProt P13128, S467A); assay type: biochemical; conditions: mutant S467A compared with LLO, Fig. 2b
T2 construct: His6 (C); made in house; host or cells: Escherichia coli BL21(DE3)

V428A-LLO = target: T3, V428A-LLO (Listeria monocytogenes serovar 1/2a, UniProt P13128, V428A); assay type: biochemical; conditions: mutant V428A compared with LLO, Fig. 2b
T3 construct: His6 (C); made in house; host or cells: Escherichia coli BL21(DE3)

Y427A-LLO = target: T4, Y427A-LLO (Listeria monocytogenes serovar 1/2a, UniProt P13128, Y427A); assay type: biochemical; conditions: mutant Y427A compared with LLO, Fig. 2b
T4 construct: His6 (C); made in house; host or cells: Escherichia coli BL21(DE3)

S466A-LLO = target: T5, S466A-LLO (Listeria monocytogenes serovar 1/2a, UniProt P13128, S466A); assay type: biochemical; conditions: mutant S466A compared with LLO, Fig. 2b
T5 construct: His6 (C); made in house; host or cells: Escherichia coli BL21(DE3)

Row | Compound | antimicrobial activity (L. monocytogenes) | effect on hemolytic activity of LLO (LLO) | sensitivity to Myr in the inhibition of hemolytic activity (S467A-LLO) | sensitivity to Myr in the inhibition of hemolytic activity (V428A-LLO) | sensitivity to Myr in the inhibition of hemolytic activity (Y427A-LLO) | sensitivity to Myr in the inhibition of hemolytic activity (S466A-LLO)
1 | O=c1c(O)c(-c2ccc(O)c(O)c2)oc2cc(O)ccc12 [fisetin] | without antimicrobial activity; also recorded: without anti-bacterial activity | inhibit its hemolytic activity; also recorded: attenuating the hemolytic activity of LLO |  |  |  | 
2 | O=c1c(O)c(-c2cc(O)c(O)c(O)c2)oc2cc(O)cc(O)c12 [Myr, myricetin] |  |  | less sensitive | less sensitive | less sensitive | less sensitive
